According to US20230365589A1, “NOVEL AMINE DERIVATIVES” (Sumitomo Pharma Co., Ltd., priority 2020, published 2023):
Like-named read-outs stand apart in the source and are kept apart here.

Key:
Type in all cases: biochemical
DYRK1B = biological target: T1, DYRK1B (Homo sapiens, UniProt Q9Y463); assay: Inhibition test on activity of DYRK family, mobility shift assay (MSA): DYRK1B
T1 construct: purchased Carna Biosciences, Inc. 04-131
Method: [Inhibition Test on Activity of DYRK Family (DYRK1A, DYRK1B, DYRK2, and DYRK3)]
The kinase activity was measured by mobility shift assay (MSA) method using QuickScout Screening Assist™ MSA (commercially available kit manufactured by Carna Biosciences, Inc.). The substrate of the kinase reaction used was an FITC-labeled DYRKtide peptide included in the kit. An assay buffer [20 mM HEPES, 0.01% Triton X-100™, 2 mM dithiothreitol, pH 7.5]was used to create a substrate mixture solution with a substrate (4 μM), MgCl2(20 mM), and ATP (DYRK1A: 100 μM; DYRK1B: 200 μM; DYRK2: 40 μM; and DYRK3: 20 μM). In addition, kinases (DYRK1A: manufactured by Carna Biosciences, Inc., Cat. No. 04-130; DYRK1B: manufactured by Carna Biosciences, Inc., Cat. No. 04-131; DYRK2; manufactured by Carna Biosciences, Inc., Cat. No. 04-132; and DYRK3; manufactured by Carna Biosciences, Inc., Cat. No. 04-133) were diluted with the assay buffer to prepare enzyme solutions (DYRK1A: 0.2 ng/μL; DYRK1B: 0.08 ng/μL; DYRK2: 0.04 ng/μL; and DYRK3: 0.25 ng/μL). The 10 mM solution of the test compound in DMSO was further diluted with DMSO to 10 levels of the concentration (0.00003 mM, 0.0001 mM, 0.0003 mM, 0.001 mM, 0.003 mM, 0.01 mM, 0.03 mM, 0.1 mM, 0.3 mM, and 1 mM), each of which was subjected to 25-fold dilution with the assay buffer to obtain a drug solution (4% DMSO solution). 5 μL of the drug solution or a control solution (4% DMSO-assay buffer), 5 μL of the substrate mixture solution, and 10 μL of the enzyme solution were mixed in the wells of a polypropylene 384-well plate and allowed to react at room temperature for 1 hour, and then the reaction was quenched by adding 60 μL of the termination buffer included in the kit. Subsequently, the quantities of the substrates (S) and the phosphorylated substrate (P) in the reaction solution were measured using LabChip EZ Reader II system (manufactured by Caliper Life Sciences) according to the protocol of the assay kit.
The heights of the peaks of the “substrate” and the “phosphorylated substrate” were expressed as S and P, respectively, and a blank containing the assay buffer instead of the enzyme solution was also measured.
The inhibition rate (%) of the test compound was calculated according to the following equation:
Inhibition rate (%)=(1−(C−A)/(B−A))×100 • wherein, A, B, and C represent P/(P+S) of the blank well, P/(P+S) of the control solution well, and P/(P+S) of the compound-containing well, respectively.
The IC50 value was calculated via a regression analysis of the inhibition rate and the test compound concentration (logarithmic value).
The inhibiting activities of representative compounds of the present invention are shown against DYRK1A, DYRK1B, DYRK2, and DYRK3 in Tables.

DYRK3 = biological target: T2, DYRK3 (Homo sapiens, UniProt O43781); assay: Inhibition test on activity of DYRK family, mobility shift assay (MSA): DYRK3
T2 construct: purchased Carna Biosciences, Inc. 04-133
T2 sequence (O43781 1-568 isoform O43781-2): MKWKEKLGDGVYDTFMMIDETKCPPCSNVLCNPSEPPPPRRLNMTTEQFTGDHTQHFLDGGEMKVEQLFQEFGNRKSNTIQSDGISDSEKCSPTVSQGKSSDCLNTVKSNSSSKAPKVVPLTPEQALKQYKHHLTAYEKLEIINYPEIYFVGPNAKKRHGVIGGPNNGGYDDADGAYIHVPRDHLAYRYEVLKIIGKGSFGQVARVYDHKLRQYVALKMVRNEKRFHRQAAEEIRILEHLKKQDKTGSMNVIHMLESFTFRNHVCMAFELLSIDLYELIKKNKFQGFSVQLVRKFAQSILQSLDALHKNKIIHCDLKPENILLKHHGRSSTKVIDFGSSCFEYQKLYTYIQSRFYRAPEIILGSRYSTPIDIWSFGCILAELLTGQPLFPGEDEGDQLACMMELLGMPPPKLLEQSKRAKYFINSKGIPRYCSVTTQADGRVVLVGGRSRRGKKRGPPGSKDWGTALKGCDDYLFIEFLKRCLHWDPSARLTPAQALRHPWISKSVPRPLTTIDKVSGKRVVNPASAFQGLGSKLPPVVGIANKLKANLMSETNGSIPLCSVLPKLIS
Procedure, shortened: (§1)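 Reactions ran 1 h at room temperature in HEPES buffer pH 7.5 with FITC-DYRKtide as substrate. ATP in the substrate mix was 100 µM for DYRK1A, 200 µM for DYRK1B, 40 µM for DYRK2 and 20 µM for DYRK3. Phosphorylated and unphosphorylated peptide were separated on a LabChip, and IC50 was regressed on log dose.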

DYRK2 = biological target: T3, DYRK2 (Homo sapiens, UniProt Q92630); assay: Inhibition test on activity of DYRK family, mobility shift assay (MSA): DYRK2
T3 construct: purchased Carna Biosciences, Inc. 04-132
T3 sequence (Q92630 74-601 limits assumed): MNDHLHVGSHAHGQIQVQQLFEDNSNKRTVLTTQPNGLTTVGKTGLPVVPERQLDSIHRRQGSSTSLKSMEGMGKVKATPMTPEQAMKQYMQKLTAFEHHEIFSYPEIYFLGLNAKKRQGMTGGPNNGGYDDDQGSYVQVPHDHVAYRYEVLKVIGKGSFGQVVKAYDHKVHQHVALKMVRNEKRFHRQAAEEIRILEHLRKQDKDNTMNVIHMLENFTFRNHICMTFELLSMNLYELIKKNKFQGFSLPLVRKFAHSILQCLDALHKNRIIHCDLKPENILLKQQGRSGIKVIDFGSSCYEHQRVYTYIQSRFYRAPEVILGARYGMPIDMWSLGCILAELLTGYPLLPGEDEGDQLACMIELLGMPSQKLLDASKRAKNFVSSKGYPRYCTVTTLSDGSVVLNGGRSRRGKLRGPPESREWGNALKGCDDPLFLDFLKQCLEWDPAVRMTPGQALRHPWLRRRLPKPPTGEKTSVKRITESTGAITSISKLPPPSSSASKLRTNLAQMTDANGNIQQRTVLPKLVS
Procedure, shortened: as §1

DYRK1A = biological target: T4, DYRK1A (Homo sapiens, UniProt Q13627); assay: Inhibition test on activity of DYRK family, mobility shift assay (MSA): DYRK1A
T4 construct: purchased Carna Biosciences, Inc. 04-130
Procedure, shortened: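 IC50 derived by regressing inhibition rate on log compound concentration, using P/(P+S) peak ratios from electrophoretic separation. DYRK1A enzyme solution 0.2 ng/μL, substrate mix with 4 μM FITC-DYRKtide and 100 μM ATP, pH 7.5 HEPES; reaction run 1 h at room temperature.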

[1] = MSA, FITC-labeled DYRKtide peptide, ATP 200 μM, read-out: Inhibitory activity DYRK 1B (IC50 class)
[2] = MSA, FITC-labeled DYRKtide peptide, ATP 20 μM, read-out: Inhibitory activity DYRK 3 (IC50 class)
[3] = MSA, FITC-labeled DYRKtide peptide, ATP 40 μM, read-out: Inhibitory activity DYRK 2 (IC50 class)
[4] = MSA, FITC-labeled DYRKtide peptide, ATP 100 μM, read-out: Inhibitory activity DYRK 1A (IC50 class)
[5] = read-out: Inhibitory activity DYRK 1B
[6] = read-out: Inhibitory activity DYRK 3
[7] = read-out: Inhibitory activity DYRK 2
[8] = read-out: Inhibitory activity DYRK 1A

T1 sequence (Q9Y463 whole entry): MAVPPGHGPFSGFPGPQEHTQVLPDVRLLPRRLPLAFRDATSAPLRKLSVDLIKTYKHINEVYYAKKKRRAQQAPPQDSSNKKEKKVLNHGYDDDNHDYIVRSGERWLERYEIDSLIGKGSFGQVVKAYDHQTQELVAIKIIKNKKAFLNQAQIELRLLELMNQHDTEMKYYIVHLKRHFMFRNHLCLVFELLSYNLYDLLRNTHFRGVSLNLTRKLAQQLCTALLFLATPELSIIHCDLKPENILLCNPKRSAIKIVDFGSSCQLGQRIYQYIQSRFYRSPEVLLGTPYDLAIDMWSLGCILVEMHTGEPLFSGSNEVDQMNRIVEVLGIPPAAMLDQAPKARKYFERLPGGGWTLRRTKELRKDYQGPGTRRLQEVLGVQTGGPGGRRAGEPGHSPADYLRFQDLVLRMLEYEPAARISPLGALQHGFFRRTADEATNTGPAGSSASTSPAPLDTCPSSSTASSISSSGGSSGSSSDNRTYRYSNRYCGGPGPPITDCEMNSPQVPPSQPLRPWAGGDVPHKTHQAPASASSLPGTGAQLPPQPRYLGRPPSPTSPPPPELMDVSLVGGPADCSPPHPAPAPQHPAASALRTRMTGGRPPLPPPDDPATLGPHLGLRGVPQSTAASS

C[C@H]1C[C@@H]2[C@H](CO1)NC(=O)N2c1nc2c3c(ccc2s1)OCCO3 [Example 39, (3aR,6S,7aR)-1-(7,8-dihydro[1,4]dioxino[2,3-e][1,3]benzothiazol-2-yl)-6-methylhexahydropyrano[3,4-d]imidazol-2(3H)-one]
IC50 (DYRK1B; [1]): < 10 nM | IC50 (DYRK3; [2]): 100 to 1000 nM | IC50 (DYRK2; [3]): 100 to 1000 nM | IC50 (DYRK1A; [4]): < 10 nM

O=C1N[C@H]2CO[C@@H](CF)C[C@H]2N1c1nc2c3c(ccc2s1)OCC3 [Example 40, (3aR,6R,7aR)-1-(7,8-dihydrofuro[3,2-e][1,3]benzothiazol-2-yl)-6-(fluoromethyl)hexahydropyrano[3,4-d]imidazol-2(3H)-one]
IC50 (DYRK1B; [1]): < 10 nM | IC50 (DYRK3; [2]): 10 to 100 nM | IC50 (DYRK2; [3]): 100 to 1000 nM | IC50 (DYRK1A; [4]): < 10 nM

O=C1N[C@H]2CO[C@@H](CF)C[C@H]2N1c1nc2c3c(ccc2s1)OCCO3 [Example 41, (3aR,6R,7aR)-1-(7,8-dihydro[1,4]dioxino[2,3-e][1,3]benzothiazol-2-yl)-6-(fluoromethyl)hexahydropyrano[3,4-d]imidazol-2(3H)-one]
IC50 (DYRK1B; [1]): < 10 nM | IC50 (DYRK3; [2]): 10 to 100 nM | IC50 (DYRK2; [3]): 100 to 1000 nM | IC50 (DYRK1A; [4]): < 10 nM

CC[C@H]1C[C@@H]2[C@H](CO1)NC(=O)N2c1nc2c3c(ccc2s1)OCC3 [Example 42, (3aR,6S,7aR)-1-(7,8-dihydrofuro[3,2-e][1,3]benzothiazol-2-yl)-6-ethylhexahydropyrano[3,4-d]imidazol-2(3H)-one]
IC50 (DYRK1B; [1]): < 10 nM | IC50 (DYRK3; [2]): 100 to 1000 nM | IC50 (DYRK2; [3]): 100 to 1000 nM | IC50 (DYRK1A; [4]): < 10 nM

CC[C@H]1C[C@@H]2[C@H](CO1)NC(=O)N2c1nc2c3c(ccc2s1)OCCO3 [Example 43, (3aR,6S,7aR)-1-(7,8-dihydro[1,4]dioxino[2,3-e][1,3]benzothiazol-2-yl)-6-ethylhexahydropyrano[3,4-d]imidazol-2(3H)-one]
IC50 (DYRK1B; [1]): < 10 nM | IC50 (DYRK3; [2]): 100 to 1000 nM | IC50 (DYRK2; [3]): 100 to 1000 nM | IC50 (DYRK1A; [4]): < 10 nM

O=C1N[C@H]2COC[C@H]2N1c1nc2c3c(ccc2s1)OCC3 [Example 119]
IC50 (DYRK1B; [5]): 10 to 100 nM | IC50 (DYRK3; [6]): 10 to 100 nM | IC50 (DYRK2; [7]): 10 to 100 nM | IC50 (DYRK1A; [8]): 10 to 100 nM

O=C1N[C@H]2COCC[C@H]2N1c1nc2c3c(ccc2s1)OCC3 [Example 122, (3aR,7aR)-1-(7,8-dihydrofuro[3,2-e][1,3]benzothiazol-2-yl)hexahydropyrano[3,4-d]imidazol-2(3H)-one]
IC50 (DYRK1B; [5]): < 10 nM | IC50 (DYRK3; [6]): 100 to 1000 nM | IC50 (DYRK2; [7]): 100 to 1000 nM | IC50 (DYRK1A; [8]): < 10 nM

CC[C@H]1C[C@@H]2[C@H](CO1)NC(=O)N2c1nc2c3c(ccc2s1)OCO3 [Example 138, (3aR,6S,7aR)-1-(2H-[1,3]dioxolo[4,5-e][1,3]benzothiazol-7-yl)-6-ethylhexahydropyrano[3,4-d]imidazol-2(3H)-one]
IC50 (DYRK1B; [1]): < 10 nM | IC50 (DYRK3; [2]): 100 to 1000 nM | IC50 (DYRK2; [3]): 100 to 1000 nM | IC50 (DYRK1A; [4]): < 10 nM

C[C@H]1C[C@@H]2[C@H](CO1)NC(=O)N2c1nc2c3c(ccc2s1)OCO3 [Example 139, (3aR,6S,7aR)-1-(2H-[1,3]dioxolo[4,5-e][1,3]benzothiazol-7-yl]-6-methylhexahydropyrano[3,4-d]imidazol-2(3H)-one]
IC50 (DYRK1B; [1]): < 10 nM | IC50 (DYRK3; [2]): 10 to 100 nM | IC50 (DYRK2; [3]): 100 to 1000 nM | IC50 (DYRK1A; [4]): < 10 nM

O=C1N[C@H]2CO[C@@H](CF)C[C@H]2N1c1nc2c3c(ccc2s1)OCO3 [Example 140, (3aR,6R,7aR)-1-(2H-[1,3]dioxolo[4,5-e][1,3]benzothiazol-7-yl]-6-(fluoromethyl)hexahydropyrano[3,4-d]imidazol-2(3H)-one]
IC50 (DYRK1B; [1]): < 10 nM | IC50 (DYRK3; [2]): 10 to 100 nM | IC50 (DYRK2; [3]): 10 to 100 nM | IC50 (DYRK1A; [4]): < 10 nM

O=C1N[C@@H]2[C@@H](CO)OC[C@@H]2N1c1nc2c3c(ccc2s1)OCC3 [Example 158]
IC50 (DYRK1B; [1]): 100 to 1000 nM | IC50 (DYRK3; [2]): ≥ 1000 nM | IC50 (DYRK2; [3]): ≥ 1000 nM | IC50 (DYRK1A; [4]): 100 to 1000 nM

O=C1N[C@H]2CO[C@H](CF)[C@H]2N1c1nc2c3c(ccc2s1)OCC3 [Example 159, (3aR,6S,6aS)-1-(7,8-dihydrofuro[3,2-e][1,3]benzothiazol-2-yl)-6-(fluoromethyl)tetrahydro-1H-furo[3,4-d]imidazol-2(3H)-one]
IC50 (DYRK1B; [1]): 10 to 100 nM | IC50 (DYRK3; [2]): 10 to 100 nM | IC50 (DYRK2; [3]): 10 to 100 nM | IC50 (DYRK1A; [4]): < 10 nM

C[C@@H]1C[C@@H]2[C@H](CO1)NC(=O)N2c1nc2c3c(ccc2s1)OCC3 [Example 160]
IC50 (DYRK1B; [1]): 100 to 1000 nM | IC50 (DYRK3; [2]): ≥ 1000 nM | IC50 (DYRK2; [3]): ≥ 1000 nM | IC50 (DYRK1A; [4]): 100 to 1000 nM

C[C@H]1OC[C@@H]2NC(=O)N(c3nc4c5c(ccc4s3)OCC5)[C@@H]21 [Example 161, (3aR,6R,6aS)-1-(7,8-Dihydrofuro[3,2-e][1,3]benzothiazol-2-yl)-6-methyltetrahydro-1H-furo[3,4-d]imidazol-2(3H)-one]
IC50 (DYRK1B; [1]): 10 to 100 nM | IC50 (DYRK3; [2]): 100 to 1000 nM | IC50 (DYRK2; [3]): 10 to 100 nM | IC50 (DYRK1A; [4]): 10 to 100 nM
